From ChEMBL document CHEMBL2203245 (Bioorg Med Chem Lett, 2012) come the findings set out here.

The structures appear in SMILES notation.

In test [1] the target is T1, Kappa-type opioid receptor (Homo sapiens, UniProt P41145). Description: Displacement of [3H]U69,593 from human kappa opioid receptor expressed in CHO cells after 60 mins by scintillation counting. In kind it is cell-based. Background: Loss of bound radioactivity is the signal in a displacement assay; it reports binding, not function.
T1 sequence (P41145 whole entry): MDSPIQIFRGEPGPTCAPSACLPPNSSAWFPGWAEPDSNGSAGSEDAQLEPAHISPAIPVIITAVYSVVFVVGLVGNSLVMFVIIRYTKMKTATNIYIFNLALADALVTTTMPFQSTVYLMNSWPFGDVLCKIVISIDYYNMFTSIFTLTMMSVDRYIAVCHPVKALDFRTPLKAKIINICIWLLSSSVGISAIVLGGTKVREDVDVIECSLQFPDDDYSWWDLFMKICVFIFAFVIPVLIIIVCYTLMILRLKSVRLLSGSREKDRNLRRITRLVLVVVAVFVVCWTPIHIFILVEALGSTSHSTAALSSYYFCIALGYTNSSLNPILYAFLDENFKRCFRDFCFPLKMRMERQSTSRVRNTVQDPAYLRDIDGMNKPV
In test [2] the target is T2, Delta-type opioid receptor (Homo sapiens, UniProt P41143). Description: Displacement of [3H]Naltrindole from human delta opioid receptor expressed in CHO cells after 3 hrs by scintillation counting. It is filed as cell-based.
T2 sequence (P41143 whole entry): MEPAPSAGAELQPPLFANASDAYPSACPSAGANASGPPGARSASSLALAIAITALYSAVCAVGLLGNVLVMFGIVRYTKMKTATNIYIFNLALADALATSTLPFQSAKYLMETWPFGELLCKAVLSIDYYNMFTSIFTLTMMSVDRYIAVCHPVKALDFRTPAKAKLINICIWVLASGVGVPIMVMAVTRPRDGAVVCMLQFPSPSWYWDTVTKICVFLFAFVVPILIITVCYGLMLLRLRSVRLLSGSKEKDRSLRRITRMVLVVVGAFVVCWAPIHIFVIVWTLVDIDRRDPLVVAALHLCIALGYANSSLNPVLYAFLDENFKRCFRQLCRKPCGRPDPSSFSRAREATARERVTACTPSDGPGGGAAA
Test [3] has as its target T1, Kappa-type opioid receptor. Description: Antagonist activity at human kappa opioid receptor expressed in CHO cells assessed as inhibition of U50,488-induced [35S]GTPgammaS binding after 60 mins by scintillation counting. In kind it is functional, cell-based. For orientation: GTPγS resists hydrolysis and so accumulates on activated G proteins.
Test [4] concerns the target T2, Delta-type opioid receptor. Description: Antagonist activity at human delta opioid receptor expressed in CHO cells assessed as inhibition of SNC80-induced [35S]GTPgammaS binding after 60 mins by scintillation counting. In kind it is functional, cell-based.
The target of test [5] is T2, Delta-type opioid receptor. Put plainly: Agonist activity at human delta opioid receptor expressed in CHO cells assessed as [35S]GTPgammaS binding after 60 mins by scintillation counting. It is filed as functional, cell-based.
Test [6] deals with T3, Mu-type opioid receptor (Homo sapiens, UniProt P35372). Description: Partial agonist activity at human mu opioid receptor expressed in CHO cells assessed as [35S]GTPgammaS binding after 60 mins by scintillation counting relative to untreated-control. In kind it is functional, cell-based.
T3 sequence (P35372 whole entry): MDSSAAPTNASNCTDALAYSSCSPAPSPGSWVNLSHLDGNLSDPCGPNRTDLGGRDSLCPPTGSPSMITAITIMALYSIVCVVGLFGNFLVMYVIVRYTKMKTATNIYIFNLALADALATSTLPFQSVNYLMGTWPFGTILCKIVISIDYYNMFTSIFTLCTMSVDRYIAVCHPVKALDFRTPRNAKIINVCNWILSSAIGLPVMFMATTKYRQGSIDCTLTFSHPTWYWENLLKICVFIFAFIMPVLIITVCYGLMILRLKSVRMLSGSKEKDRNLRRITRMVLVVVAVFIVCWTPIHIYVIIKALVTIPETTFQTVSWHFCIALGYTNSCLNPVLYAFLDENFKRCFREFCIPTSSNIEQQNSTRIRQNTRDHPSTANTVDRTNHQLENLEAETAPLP
Test [7] concerns the target T3, Mu-type opioid receptor. Put plainly: Partial agonist activity at human mu opioid receptor expressed in CHO cells assessed as [35S]GTPgammaS binding after 60 mins by scintillation counting. In kind it is functional, cell-based.
Test [8] concerns the target T3, Mu-type opioid receptor. Description: Antagonist activity at human mu opioid receptor expressed in CHO cells assessed as inhibition of DAMGO-induced [35S]GTPgammaS binding after 60 mins by scintillation counting relative to untreated-control. In kind it is functional, cell-based.
The target of test [9] is T3, Mu-type opioid receptor. Description: Antagonist activity at human mu opioid receptor expressed in CHO cells assessed as inhibition of DAMGO-induced [35S]GTPgammaS binding after 60 mins by scintillation counting. It is filed as functional, cell-based.
For test [10], the species on record is Homo sapiens. Description: Selectivity ratio of Ki for human kappa opioid receptor to Ki for human mu opioid receptor.
For test [11], the species on record is Homo sapiens. Put plainly: Selectivity ratio of Ki for human delta opioid receptor to Ki for human mu opioid receptor.
Test [12] concerns the target T3, Mu-type opioid receptor. Description: Displacement of [3H]DAMGO from human mu opioid receptor expressed in CHO cells after 60 mins by scintillation counting. In kind it is cell-based.
Test [13] has as its target T1, Kappa-type opioid receptor. Put plainly: Agonist activity at human kappa opioid receptor expressed in CHO cells assessed as [35S]GTPgammaS binding after 60 mins by scintillation counting. It is filed as functional, cell-based.
The target of test [14] is T2, Delta-type opioid receptor. Put plainly: Partial agonist activity at human delta opioid receptor expressed in CHO cells assessed as [35S]GTPgammaS binding after 60 mins by scintillation counting relative to untreated control. In kind it is functional, cell-based.
Test [15] has as its target T2, Delta-type opioid receptor. Put plainly: Partial agonist activity at human delta opioid receptor expressed in CHO cells assessed as [35S]GTPgammaS binding after 60 mins by scintillation counting. In kind it is functional, cell-based.
In test [16] the target is T3, Mu-type opioid receptor. Description: Agonist activity at human mu opioid receptor expressed in CHO cells assessed as [35S]GTPgammaS binding after 60 mins by scintillation counting relative to untreated-control. It is filed as functional, cell-based.

Regarding `CC1C2Cc3ccc(O)cc3C1(C)CCN2CC1CC1` (racemic), the inhibition constant (Ki) in test [1] stood at 0.07 nM; in [2], 2 nM.
As for `CC(C)Oc1ccc(-c2ccc(CCNC(=O)c3ccc4c(c3)C3(C)CCN(CC5CC5)C(C4)C3C)cc2)cc1` (racemic), the IC50 entry was “Not Active” in test [3], “Not Active” in test [4] (cho) and 13 nM on Mu-type opioid receptor [9]. In addition, the concentration for a half-maximal effect (EC50) in test [5] turned out to be 18 nM; on Mu-type opioid receptor [7] it was 2.3 nM. In addition, at Mu-type opioid receptor [6], the maximum response (Emax) was found to be 35%. For the same molecule, the Imax at Mu-type opioid receptor [8] came out at 72%.
As for `CC1C2Cc3ccc(C(=O)NCCc4ccc(-c5ccc(OC(F)(F)F)cc5)cc4)cc3C1(C)CCN2CC1CC1` (racemic), the Ratio Ki was found to be 3 in the test filed under Homo sapiens [10] and 4 in the test listed under Homo sapiens [11]. For the same molecule, the inhibitory constant (Ki) in test [1] came out at 5.2 nM; in test [2], 6.6 nM; at Mu-type opioid receptor [12], 1.8 nM.
For `CC1C2Cc3ccc(C(=O)NCCc4ccc(-c5ccc(OC(F)F)cc5)cc4)cc3C1(C)CCN2CC1CC1` (racemic) the same measures were 9, 3, 2.7 nM, 0.8 nM and 0.3 nM.
Turning to `COc1cccc(-c2ccc(CCNC(=O)c3ccc4c(c3)C3(C)CCN(CC5CC5)C(C4)C3C)cc2)c1` (racemic), the half-inhibitory concentration (IC50) entry in [3] and in test [4] (cho) was “Not Active” in each case. Also, the EC50 in test [13] stood at 3.1 nM; in [5], 1.2 nM. The Ki in test [1] was found to be 0.22 nM; in test [2], 1.3 nM.
On to `CC1C2Cc3ccc(C(=O)NCCc4ccc(-c5ccc6c(c5)OCO6)cc4)cc3C1(C)CCN2CC1CC1` (racemic), for which the IC50 result in [3] and in [4] (cho) was “Not Active” each time. For the same molecule, the EC50 in test [13] turned out to be 0.34 nM; in [5], 0.8 nM.
Turning to `CC1C2Cc3ccc(C(=O)NCCc4ccc5ccccc5c4)cc3C1(C)CCN2CC1CC1` (racemic), the results for the Ratio Ki in the test filed under Homo sapiens [10] and in the test listed under Homo sapiens [11] were 1 and 5, respectively. In addition, the inhibitory constant (Ki) in test [1] came out at 0.2 nM; in [2], 0.9 nM; on Mu-type opioid receptor [12], 0.18 nM.
With `COc1ccc(-c2ccc(CCNC(=O)c3ccc4c(c3)C3(C)CCN(CC5CC5)C(C4)C3C)cc2)cc1` (racemic), the Ratio Ki amounted to 18 in the test filed under Homo sapiens [10] and 2 in the test filed under Homo sapiens [11]. The Ki in test [1] worked out at 1.5 nM; in test [2], 0.18 nM; on Mu-type opioid receptor [12], 0.084 nM.
In the case of `COc1ccc(-c2ccc(CCNC(=O)c3ccc4c(c3)C3(C)CCN(CC5CC5)C(C4)C3C)cc2)cc1OC` (racemic), the half-inhibitory concentration (IC50) entry is “Not Active” in [3], 70 nM in test [4] (read-out: IC50) and 29 nM on Mu-type opioid receptor [9]. The figures for the EC50 (in [13]; in test [15]; at Mu-type opioid receptor [7]) were 3 nM, 6.2 nM and 1.6 nM, respectively. The maximal response (Emax) in test [14] was 73%; at Mu-type opioid receptor [6] it was 32%. Also, at Mu-type opioid receptor [8], the Imax came out at 70%. The Ratio Ki in the test filed under Homo sapiens [10] was 183; in the test filed under Homo sapiens [11], 211. Moreover, the inhibitory constant (Ki) in test [1] turned out to be 1.3 nM; in test [2], 1.5 nM; at Mu-type opioid receptor [12], 0.0071 nM.
For the molecule `C[C@H]1[C@H]2Cc3ccc(C(=O)NCCc4ccc(-c5ccc(O)cc5)cc4)cc3[C@]1(C)CCN2CC1CC1`, the concentration for half-maximal inhibition (IC50) result in test [3] and in [4] (cho) was “Not Active” each time. The results for the EC50 in test [13] and in test [5] were 0.26 nM and 0.31 nM, respectively. The Emax on Mu-type opioid receptor [6] stood at 31%. Besides, the Imax on Mu-type opioid receptor [8] stood at 62%. The inhibition constant Ki was 0.36 nM in test [1] and 0.78 nM in [2].
Regarding `CC1C2Cc3ccc(C(=O)NCCc4ccc(-c5cccc(O)c5)cc4)cc3C1(C)CCN2CC1CC1` (racemic), the figures for the Ratio Ki in the test listed under Homo sapiens [10] and in the test filed under Homo sapiens [11] were 62 and 57, respectively. For the same molecule, the Ki amounted to 1.3 nM in test [1], 1.2 nM in [2] and 0.021 nM at Mu-type opioid receptor [12].
Regarding `COc1ccccc1-c1ccc(CCNC(=O)c2ccc3c(c2)C2(C)CCN(CC4CC4)C(C3)C2C)cc1` (racemic), the Ratio Ki was determined as 3 in the test filed under Homo sapiens [10] and 7 in the test listed under Homo sapiens [11]. The results for the Ki (in test [1]; in test [2]; on Mu-type opioid receptor [12]) were 0.38 nM, 0.84 nM and 0.12 nM, respectively.
On to `CC1C2Cc3ccc(C(=O)NCCc4ccc(-c5ccccc5O)cc4)cc3C1(C)CCN2CC1CC1` (racemic), for which the IC50 entry in test [3] was “Not Active”; in test [4] (cho), “Not Active”; on Mu-type opioid receptor [9], 64 nM. Moreover, the EC50 was found to be 0.086 nM in test [13], 0.16 nM in test [5] and 1.5 nM at Mu-type opioid receptor [7]. For the same molecule, the maximal response (Emax) at Mu-type opioid receptor [6] amounted to 48%. Also, the Imax at Mu-type opioid receptor [8] was 67%. Besides, the inhibition constant Ki turned out to be 2.1 nM in [1], 0.24 nM in test [2] and 0.0056 nM at Mu-type opioid receptor [12].
Turning to `COc1ccc(-c2ccc(CCNC(=O)c3ccc4c(c3)C3(C)CCN(CC5CC5)C(C4)C3C)cc2)cc1C` (racemic), the IC50 result in test [3] and in test [4] (cho) was “Not Active” throughout. Moreover, the EC50 in test [5] was 2.8 nM. Also, at Mu-type opioid receptor [6], the Emax worked out at 21%. The Imax at Mu-type opioid receptor [8] is 81%.
As to `COc1ccc2cc(CCNC(=O)c3ccc4c(c3)C3(C)CCN(CC5CC5)C(C4)C3C)ccc2c1` (racemic), the results for the half-maximal inhibitory concentration (IC50) entry (in [3]; in test [4] (cho); at Mu-type opioid receptor [9]) were “Not Active”, “Not Active” and 45 nM, respectively. For the same molecule, the results for the EC50 in test [13] and in test [5] were 1.3 nM and 7.5 nM, respectively. Also, at Mu-type opioid receptor [8], the Imax turned out to be 76%. Also, at Mu-type opioid receptor [16], the Emax was 6.6%. The Ki in test [1] came to 0.45 nM; in [2], 2.2 nM; on Mu-type opioid receptor [12], 0.064 nM.

Usually Ki stands for a dissociation constant, usually derived from enzyme kinetics or from competition with a known ligand. A higher Ki goes with weaker binding. For orientation: IC50 means the point on the concentration scale where inhibition reaches its midpoint. As a reminder, the EC50 is the concentration at which the effect is half-maximal. As a reminder, the Emax is the greatest response seen or fitted, relative to the assay's reference.
